From patent US5328913A, “Minoxidil analogs as inhibitors of cell proliferation and lysyl hydroxylase” (priority 1992, dated 1994)
Counter-ions that a name gives are not always drawn.

What was measured:
lysyl hydroxylase [1] = assay: Lysyl hydroxylase activity in extracts of treated human skin fibroblasts (Example 1, tritium-release assay); assay type: cell-based; conditions: cultured fibroblasts, 72 h, Example 1
Procedure: (§1) Cultures of human skin fibroblasts grown to confluence were incubated for 72 h in medium supplemented with 1% ethanol containing various concentrations of minoxidil or deoxyminoxidil as indicated. Cells were then harvested, and the enzyme activities in extracts of these cells were measured by tritium-release assays (Murad and Pinnell, J. Biol. Chem. 262:11,973 (1987)). The results are expressed as percentages of zero-concentration values.
as §1, with “with 1% acetone containing various concentrations of minoxidil sulfate,” for “deoxyminoxidil”, “tritium release” for “tritium-release”
(§2) Skin fibroblast cultures derived from an apparently normal child (GM05659) were obtained from the Institute for Medical Research, Camden, N.J. The cells were subcultured by trypsinization and used before 25 population doublings. Typically, 4×10^5 cells were seeded onto 100-mm (diameter) plastic petri dishes and allowed to grow in 10 ml of Dulbecco's modified Eagle's minimum essential medium containing 5.6 mM glucose, buffered in pH 7.4 with 24 mM sodium biocarbonate/25 mM Hepes and supplemented with 20% (v/v) calf serum which had been inactivated for 30 min at 56° C. The cells were incubated at 37° C. in a humidified atmosphere of 5% CO2 plus 95% air.
(§3) After a week, the medium was replaced with medium supplemented with 0.5% heat-inactivated diaylzed calf serum, and the incubation was continued for 72 h in the presence of minoxidil or one of its structural analogs. The compounds were dissolved in 95% ethanol, except minoxidil sulfate which was dissolved in acetone; the final solvent concentration was 1% (v/v). During the last 3 h of incubation, cells received 100 μM Na L-ascorbate to ensure complete hydroxylation of the polypeptide precursors of precollagen (Murad et al, J. Invest. Dermatol. 75:404 (1980)).
The medium was then removed and the cells were washed twice with a solution containing 0.14 M NaCl, 5 mM KCl, 0.3 mM Na2 PO4, and 0.4 mM KH2 PO4, adjusted to pH 7.4. The cells were detached from the plates with a solution containing 0.05% trypsin, 0.54 mM EDTA, 5.5mM glucose, 6.90mM NaHCO3, […], and 5 mM KCl. The trypsinization was terminated with 2 vol of 20% serum-supplemented medium, and the cell number in an aliquot of the suspension was determined using a Coulter counter.
The detached cells were collected by centrifugation at 500g for 6 min at 4° C. washed twice by suspending in phosphate-buffered NaCl/KCl as above, and then centrifuged. The cell pellet was suspended in a medium (1 ml/5×10^6 cells) containing 0.2 M NaCl, 0.1 M glycine, 50 μM dithiothreitol, 20 mM Tris-HCl, buffer (pH 7.5), 0.1% Triton X-100, and 0.01% soybean trypsin inhibitor. The suspension was sonicated for 30 s using a Branson sonifier cell disrupter. The lysate was centrifuged at 27,000g for 1 h at 4° C., and the resulting supernatant was used for prolyl and lysyl hydroxylase assays (Murad and Pinnell, J. Biol. Chem. 262:11, 973 (1987)). The enzyme activities are based on a unit of soluble cell protein.
(§4) The protein content of cell extracts was determined by a dye-binding technique using Bio-Rad reagent and protein standard (Bradford, Anal. Biochem. 72:248 (1976)).
Note: Cultures of human skin fibroblasts grown to confluence were
incubated for 72 h in medium supplemented with 1% ethanol containing 1 mM
of the indicated compounds. Cells were then harvested, and the enzyme
activity in extracts of these cells was measured by a tritiumrelease
incubated for 72 h in medium supplemented with 1% ethanol containing 1 nM

[2] = Solubility with acetone as solvent; assay type: physicochemical; conditions: acetone as the solvent; concentrations higher than 500 μM could not be tested
prolyl hydroxylase = assay: Prolyl hydroxylase activity in extracts of treated human skin fibroblasts (Example 1, tritium-release assay); assay type: cell-based; conditions: cultured fibroblasts, 72 h, Example 1
Procedure: as §1
as §1, with “with 1% acetone containing various concentrations of minoxidil sulfate,” for “deoxyminoxidil”, “tritium release” for “tritium-release”
as §2, §3
The medium was then removed and the cells were washed twice with a solution containing 0.14 M NaCl, 5 mM KCl, 0.3 mM Na2 PO4, and 0.4 mM KH2 PO4, adjusted to pH 7.4. […] The trypsinization was terminated with 2 vol of 20% serum-supplemented medium, and the cell number in an aliquot of the suspension was determined using a Coulter counter. […]
as §4

lysyl hydroxylase [3] = biological target: T1, lysyl hydroxylase (Homo sapiens, UniProt Q02809); assay: Direct inhibition of enzyme activity in vitro / mixing experiments with cell extracts; assay type: biochemical
T1 sequence (Q02809 19-727): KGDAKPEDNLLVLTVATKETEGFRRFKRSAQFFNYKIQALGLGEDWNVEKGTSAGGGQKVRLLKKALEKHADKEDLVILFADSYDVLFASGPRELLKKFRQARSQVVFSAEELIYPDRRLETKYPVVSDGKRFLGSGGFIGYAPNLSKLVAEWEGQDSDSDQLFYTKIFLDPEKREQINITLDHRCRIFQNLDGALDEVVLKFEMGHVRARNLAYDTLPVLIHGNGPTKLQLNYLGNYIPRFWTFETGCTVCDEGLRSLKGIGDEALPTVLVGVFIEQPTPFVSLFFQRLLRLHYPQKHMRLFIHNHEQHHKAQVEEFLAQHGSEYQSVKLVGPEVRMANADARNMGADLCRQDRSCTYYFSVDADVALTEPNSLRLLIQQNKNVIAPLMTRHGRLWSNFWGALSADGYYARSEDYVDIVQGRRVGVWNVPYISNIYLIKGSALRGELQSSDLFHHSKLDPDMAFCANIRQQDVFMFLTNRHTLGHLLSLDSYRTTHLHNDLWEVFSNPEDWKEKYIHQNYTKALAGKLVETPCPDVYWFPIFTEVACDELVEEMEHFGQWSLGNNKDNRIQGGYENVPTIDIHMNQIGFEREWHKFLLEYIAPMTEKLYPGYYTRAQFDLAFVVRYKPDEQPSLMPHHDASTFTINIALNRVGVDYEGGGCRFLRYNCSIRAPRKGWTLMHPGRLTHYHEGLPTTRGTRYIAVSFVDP

- solubility (in words) [2]: limited solubility
- effect on prolyl hydroxylase activity (in words) (prolyl hydroxylase): no change in prolyl hydroxylase activity
SMILES: Nc1cc(N2CCCCC2)nc(N)[n+]1OS(=O)(=O)[O-] [Minoxidil sulfate]
- effect on lysyl hydroxylase activity (in words) (lysyl hydroxylase [1]): suppressed lysyl hydroxylase activity in a manner almost identical to that observed with minoxidil
- inhibition of lysyl hydroxylase activity in vitro (in words) (lysyl hydroxylase [3]): failed to inhibit lysyl hydroxylase activity in vitro
